Measured values taken from ChEMBL document CHEMBL3808342, “Discovery and optimization of a novel series of highly CNS penetrant M4 PAMs based on a 5,6-dimethyl-4-(piperidin-1-yl)thieno[2,3-d]pyrimidine core” (Bioorg Med Chem Lett, 2016).
pEC50, pIC50: −log10 of the molar value. Active and inactive are the calls of the source. No cut-off for these calls is given here.

Columns and labels:
[1] = Fraction unbound in human plasma; format: ADME, cell-free
[2] = biological target: T1, Muscarinic acetylcholine receptor M4 (Homo sapiens) (UniProt P08173); experiment: Positive allosteric modulation of human M4 receptor expressed in CHO cells coexpressing Gqi5 by calcium mobilization assay relative to acetylcholine; format: functional, cell-based
T1 sequence (whole entry): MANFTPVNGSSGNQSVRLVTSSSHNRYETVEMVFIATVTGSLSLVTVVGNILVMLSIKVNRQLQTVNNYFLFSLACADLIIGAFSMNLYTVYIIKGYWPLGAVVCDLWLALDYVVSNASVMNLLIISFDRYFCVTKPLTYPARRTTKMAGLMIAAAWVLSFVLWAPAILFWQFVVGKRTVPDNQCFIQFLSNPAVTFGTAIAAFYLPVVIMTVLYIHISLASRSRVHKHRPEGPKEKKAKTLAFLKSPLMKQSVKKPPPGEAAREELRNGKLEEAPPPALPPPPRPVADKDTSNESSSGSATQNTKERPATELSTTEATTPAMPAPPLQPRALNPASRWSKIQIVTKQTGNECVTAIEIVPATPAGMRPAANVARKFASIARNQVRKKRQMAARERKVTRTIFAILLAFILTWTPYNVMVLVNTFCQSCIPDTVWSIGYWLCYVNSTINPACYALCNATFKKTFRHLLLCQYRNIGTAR

[3] = Fraction unbound in rat plasma; format: ADME, cell-free
Cytochrome P450 2C9 = Cytochrome P450 2C9 (Homo sapiens, UniProt P11712); experiment: Inhibition of CYP2C9 (unknown origin); format: ADME
[4] = biological target: T2, Muscarinic acetylcholine receptor M5 (Homo sapiens) (UniProt P08912); experiment: Positive allosteric modulation of human M5 receptor expressed in CHOK1 cells by calcium mobilization assay; format: functional, cell-based; conditions: CHO-K1
T2 sequence (whole entry): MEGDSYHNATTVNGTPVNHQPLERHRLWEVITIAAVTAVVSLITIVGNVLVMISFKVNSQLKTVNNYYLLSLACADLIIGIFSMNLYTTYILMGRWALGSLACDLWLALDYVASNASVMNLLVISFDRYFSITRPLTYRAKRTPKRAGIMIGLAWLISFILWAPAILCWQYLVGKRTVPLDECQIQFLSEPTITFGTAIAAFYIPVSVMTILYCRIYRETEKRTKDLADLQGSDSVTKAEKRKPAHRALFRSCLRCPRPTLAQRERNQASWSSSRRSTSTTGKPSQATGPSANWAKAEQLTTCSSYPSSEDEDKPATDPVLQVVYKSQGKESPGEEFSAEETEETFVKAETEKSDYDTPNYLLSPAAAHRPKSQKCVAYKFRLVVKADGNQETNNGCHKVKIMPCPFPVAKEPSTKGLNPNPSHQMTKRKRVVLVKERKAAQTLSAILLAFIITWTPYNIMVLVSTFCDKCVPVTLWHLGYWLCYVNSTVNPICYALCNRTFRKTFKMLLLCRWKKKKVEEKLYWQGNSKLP

[5] = biological target: T3, Muscarinic acetylcholine receptor M4 (Rattus norvegicus) (UniProt P08485); experiment: Positive allosteric modulation of rat M4 receptor expressed in CHO cells coexpressing Gqi5 by calcium mobilization assay relative to acetylcholine; format: functional, cell-based
T3 sequence (whole entry): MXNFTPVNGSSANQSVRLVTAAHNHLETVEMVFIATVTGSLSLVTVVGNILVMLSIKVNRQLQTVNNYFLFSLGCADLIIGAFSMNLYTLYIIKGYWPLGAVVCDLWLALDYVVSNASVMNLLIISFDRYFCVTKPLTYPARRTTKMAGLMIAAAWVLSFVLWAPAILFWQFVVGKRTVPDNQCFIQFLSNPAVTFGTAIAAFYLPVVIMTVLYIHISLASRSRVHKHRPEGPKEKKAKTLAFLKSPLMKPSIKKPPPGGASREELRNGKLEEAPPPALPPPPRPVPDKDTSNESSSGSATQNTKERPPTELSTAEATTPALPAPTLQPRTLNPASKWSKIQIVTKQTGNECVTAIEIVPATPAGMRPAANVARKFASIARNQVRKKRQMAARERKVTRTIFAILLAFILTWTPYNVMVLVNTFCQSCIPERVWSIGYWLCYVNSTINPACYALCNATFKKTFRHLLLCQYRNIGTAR

[6] = biological target: T4, Muscarinic acetylcholine receptor M4 (Homo sapiens, UniProt P08173); experiment: Positive allosteric modulation of human M4 receptor expressed in CHO cells coexpressing Gqi5 by calcium mobilization assay; format: functional, cell-based
T4 sequence (P08173 whole entry): T1 sequence (whole entry)

Cytochrome P450 3A4 = Cytochrome P450 3A4 (Homo sapiens, UniProt P08684); experiment: Inhibition of CYP3A4 (unknown origin); format: ADME
[7] = biological target: T5, Muscarinic acetylcholine receptor M4 (Rattus norvegicus, UniProt P08485); experiment: Positive allosteric modulation of rat M4 receptor expressed in CHO cells coexpressing Gqi5 by calcium mobilization assay; format: functional, cell-based
T5 sequence (P08485 whole entry): T3 sequence (whole entry)

Cytochrome P450 2D6 = Cytochrome P450 2D6 (Homo sapiens, UniProt P10635); experiment: Inhibition of CYP2D6 (unknown origin); format: ADME
Cytochrome P450 1A2 = biological target: T6, Cytochrome P450 1A2 (Homo sapiens, UniProt P05177); experiment: Inhibition of CYP1A2 (unknown origin); format: ADME
T6 sequence (P05177 whole entry): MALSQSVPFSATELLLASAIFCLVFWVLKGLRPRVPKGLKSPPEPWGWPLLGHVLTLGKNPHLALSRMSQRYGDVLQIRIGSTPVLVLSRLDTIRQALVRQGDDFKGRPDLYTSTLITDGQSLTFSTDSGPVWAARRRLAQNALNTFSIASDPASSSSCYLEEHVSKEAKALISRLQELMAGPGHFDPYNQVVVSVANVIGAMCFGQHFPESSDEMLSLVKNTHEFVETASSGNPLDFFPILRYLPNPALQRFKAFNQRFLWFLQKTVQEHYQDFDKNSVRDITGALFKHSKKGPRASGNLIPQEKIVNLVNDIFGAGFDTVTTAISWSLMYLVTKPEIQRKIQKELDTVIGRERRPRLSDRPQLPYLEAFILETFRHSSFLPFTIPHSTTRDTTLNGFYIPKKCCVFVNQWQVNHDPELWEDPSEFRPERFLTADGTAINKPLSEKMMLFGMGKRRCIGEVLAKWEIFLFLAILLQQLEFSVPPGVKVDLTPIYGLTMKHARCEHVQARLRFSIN

Cytochrome P450 2D6, sequence (P10635 whole entry): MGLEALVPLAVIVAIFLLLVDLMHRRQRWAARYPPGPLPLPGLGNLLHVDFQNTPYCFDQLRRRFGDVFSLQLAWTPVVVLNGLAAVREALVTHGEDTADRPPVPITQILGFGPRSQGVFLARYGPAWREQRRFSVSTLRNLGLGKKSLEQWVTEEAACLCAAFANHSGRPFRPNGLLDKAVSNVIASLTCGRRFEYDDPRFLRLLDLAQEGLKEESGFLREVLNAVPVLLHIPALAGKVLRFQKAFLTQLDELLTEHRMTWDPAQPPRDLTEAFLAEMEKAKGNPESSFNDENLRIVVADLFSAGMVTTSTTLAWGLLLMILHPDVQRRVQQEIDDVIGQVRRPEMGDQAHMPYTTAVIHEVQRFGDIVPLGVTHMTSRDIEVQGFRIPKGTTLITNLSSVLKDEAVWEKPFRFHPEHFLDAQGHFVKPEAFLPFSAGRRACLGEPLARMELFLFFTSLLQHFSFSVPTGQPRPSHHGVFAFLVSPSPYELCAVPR
Cytochrome P450 3A4, sequence (P08684 whole entry): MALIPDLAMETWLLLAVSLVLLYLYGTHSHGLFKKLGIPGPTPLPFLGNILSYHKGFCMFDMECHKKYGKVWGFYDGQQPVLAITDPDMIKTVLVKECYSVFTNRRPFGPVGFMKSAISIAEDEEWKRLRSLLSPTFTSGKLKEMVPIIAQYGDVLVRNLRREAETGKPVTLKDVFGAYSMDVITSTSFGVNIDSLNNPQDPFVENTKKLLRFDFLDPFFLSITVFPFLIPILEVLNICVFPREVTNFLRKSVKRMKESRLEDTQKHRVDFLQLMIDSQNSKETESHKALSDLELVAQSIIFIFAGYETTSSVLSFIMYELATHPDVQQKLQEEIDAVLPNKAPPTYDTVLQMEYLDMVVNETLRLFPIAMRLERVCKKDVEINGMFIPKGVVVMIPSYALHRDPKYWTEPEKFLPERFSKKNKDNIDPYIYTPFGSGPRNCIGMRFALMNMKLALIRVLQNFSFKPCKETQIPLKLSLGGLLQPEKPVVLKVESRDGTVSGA
Cytochrome P450 2C9, sequence (P11712 whole entry): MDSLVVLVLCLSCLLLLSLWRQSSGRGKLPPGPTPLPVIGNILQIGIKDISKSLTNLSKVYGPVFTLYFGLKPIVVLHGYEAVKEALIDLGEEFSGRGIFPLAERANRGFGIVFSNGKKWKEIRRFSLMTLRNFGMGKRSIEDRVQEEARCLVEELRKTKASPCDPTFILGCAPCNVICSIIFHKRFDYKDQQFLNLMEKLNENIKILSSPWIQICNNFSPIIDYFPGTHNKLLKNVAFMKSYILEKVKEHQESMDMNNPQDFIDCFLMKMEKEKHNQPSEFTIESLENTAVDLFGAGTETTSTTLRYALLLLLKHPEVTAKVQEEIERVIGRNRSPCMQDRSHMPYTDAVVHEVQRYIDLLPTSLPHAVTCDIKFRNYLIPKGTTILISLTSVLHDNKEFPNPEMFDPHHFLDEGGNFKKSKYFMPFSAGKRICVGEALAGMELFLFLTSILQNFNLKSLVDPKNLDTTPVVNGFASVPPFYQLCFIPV

Cc1sc2ncnc(N3CCC(C(=O)Nc4ccc(S(N)(=O)=O)cc4)CC3)c2c1C
fraction unbound [1]: 0.002 | %max [2]: 76% | fraction unbound [3]: 0.01 | pIC50 (Cytochrome P450 2C9): 5.24 | Activity [4]: inactive | %max [5]: 71% | pEC50 ([6]; read-out: EC50): 6.39 | EC50 ([6]; read-out: pEC50 (converted)): 1.2 µM | pIC50 (Cytochrome P450 3A4): < 4.70 | pEC50 [7]: 6.80 | pIC50 (Cytochrome P450 2D6): 5.47 | pIC50 (Cytochrome P450 1A2): < 4.70
